According to paper PMC9385722 (Scientific Reports, 2022):

Target: T1, TaHeR (Thermoplasmatales archaeon SG8-52-1, UniProt Z9O312AX90)
T1 construct: wild type, N-terminal 6xHis tag, pET21a(+), E. coli C43(DE3), purified in octyl glucoside; symmetric dimer, one protomer in asymmetric unit
T1 sequence (Z9O312AX90 1-259): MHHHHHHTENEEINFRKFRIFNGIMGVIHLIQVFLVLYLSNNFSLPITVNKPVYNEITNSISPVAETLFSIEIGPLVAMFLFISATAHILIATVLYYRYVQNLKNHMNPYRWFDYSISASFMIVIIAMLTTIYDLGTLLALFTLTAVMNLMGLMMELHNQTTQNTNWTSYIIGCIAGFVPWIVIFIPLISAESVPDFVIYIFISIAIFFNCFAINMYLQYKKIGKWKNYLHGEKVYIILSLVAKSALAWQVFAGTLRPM
Test: absorption red-shift titration with NaCl
Type: binding
Settings: pH 5.0, up to 300 mM NaCl; anion site in Schiff base cavity near protonated Glu-108; crystal structure at pH 4.5 also shows a second, extracellular chloride

## Cl [chloride]
  Kd: ~67 mM
